Source: US8592432B2, “Compounds and compositions as protein kinase inhibitors” (priority 2008, dated 2013)

Target: ALK (Homo sapiens (Human), UniProt Q9UM73)
Test: ALK IC50 (Tables 1-4)
Type: biochemical
Description: Assays are incubated for 10 min at ambient temperature. […] Following washing (0.5% H3PO4), plates are counted in a liquid scintillation counter. IC50 values are calculated by linear regression analysis of the percentage inhibition.
Compounds of the present invention may be assessed for their ability to inhibit ALK using assays described below, as well as other assays known in the art.

Chain of ALK (Q9UM73 1116-1392): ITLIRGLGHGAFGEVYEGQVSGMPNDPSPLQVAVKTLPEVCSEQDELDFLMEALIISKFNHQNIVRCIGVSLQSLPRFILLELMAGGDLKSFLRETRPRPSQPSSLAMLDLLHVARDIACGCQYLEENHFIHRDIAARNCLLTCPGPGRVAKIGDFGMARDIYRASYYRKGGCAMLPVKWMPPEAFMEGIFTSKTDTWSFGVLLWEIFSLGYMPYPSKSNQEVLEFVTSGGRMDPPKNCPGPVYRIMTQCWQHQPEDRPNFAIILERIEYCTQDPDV

IC50: 20 nM
Structure (SMILES): Cc1cc(Nc2nc(Nc3ccccc3S(=O)(=O)C(C)C)c3c(C)n[nH]c3n2)c(OC(C)C)cc1C1CCN(C)CC1 [Compound 34, N6-(2-isopropoxy-5-methyl-4-(1-methylpiperidin-4-yl)phenyl)-N4-(2-(isoproplsulfonyl)phenyl)-3-methyl-1H-pyrazolo[3,4-d]pyrimidine-4,6-diamine]
